32 compounds from patent US20240400555A1 (Initial Therapeutics, Inc., priority 2023, published 2024) can be followed below.

SMILES strings stand for the structures.

The first test relates to HCT-116 Firefly-luciferase reporter cells. The experiment in a line: Cellular c-MYC Reporter Assay. Format: cell-based. To be noted: Homo sapiens, HCT-116, 24 h, read-out: pIC50 (converted). In outline: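 Compound exposure lasted 24 h at 37 °C, 5% CO2, in complete McCoy's 5A medium containing 0.2% DMSO, beginning 4–6 h post-seeding (5e4 cells/mL). Firefly luciferase signal measured by luminescence after 10 min ONE-Glo development at room temperature.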
For `Cc1cccc2ccnc(N(C(=O)c3ccc(-n4nnc5cccnc54)cc3)[C@H]3CCCNCC3)c12` [Example 228, (S)-4-(3H-[1,2,3]triazolo[4,5-b]pyridin-3-yl)-N-(azepan-4-yl)-N-(8-methylisoquinolin-1-yl)benzamide], the IC50 was over 20000 nM.

As for `Cc1cccc2ccnc(N(C(=O)c3ccc(-n4ncnn4)cc3)[C@@H]3CCCNC3)c12` [Example 234, (R)—N-(8-methylisoquinolin-1-yl)-N-(piperidin-3-yl)-4-(2H-tetrazol-2-yl)benzamide], the IC50 is 398 nM.

Still in this test, the particulars now being: Homo sapiens; untitled table following Table 8a; HCT-116 Firefly-luciferase reporter cells, 24 h; read-out: pIC50 (converted).
As for `Cc1cccc2ccnc(N(C(=O)c3ccc(-n4nnc5ccccc54)cc3)[C@@H]3CCCNC3)c12` [Example 223, (R)-4-(1H-benzo[d][1,2,3]triazol-1-yl)-N-(8-methylisoquinolin-1-yl)-N-(piperidin-3-yl)benzamide], the IC50 is 214 nM.

For the compound `Cc1cccc2ccnc(N(C(=O)c3ccc(Nc4ncccn4)cc3F)[C@@H]3CCCCNC3)c12` [Example 185, (R)—N-(azepan-3-yl)-2-fluoro-N-(8-methylisoquinolin-1-yl)-4-(pyrimidin-2-ylamino)benzamide], the IC50 was 3310 nM.

With `Cc1cccc2ccnc(N(C(=O)c3ncc(-n4nnc5cccnc54)cc3F)[C@@H]3CCCNC3)c12` [Example 201, (R)-5-(3H-[1,2,3]triazolo[4,5-b]pyridin-3-yl)-3-fluoro-N-(8-methylisoquinolin-1-yl)-N-(piperidin-3-yl)picolinamide], the IC50 was 148 nM.

For the compound `Cc1cccc2ccnc(N(C(=O)c3ccc(-c4cnccn4)cc3)[C@@H]3CCCNC3)c12` [Example 238, (R)—N-(8-methylisoquinolin-1-yl)-N-(piperidin-3-yl)-4-(pyrazin-2-yl)benzamide], the IC50 was 240 nM.

As to `O=C(c1ccc(-n2nnc3cccnc32)cc1F)N(c1nccc2cccc(/C=C/CO)c12)[C@@H]1CCCNC1` [Example 165, (R,E)-4-(3H-[1,2,3]triazolo[4,5-b]pyridin-3-yl)-2-fluoro-N-(8-(3-hydroxyprop-1-en-1-yl)isoquinolin-1-yl)-N-(piperidin-3-yl)benzamide], the IC50 is 170 nM.

Turning to `Cc1nnn(-c2ccc(C(=O)N(c3nccc4cccc(C)c34)[C@@H]3CCCNC3)cc2)n1` [Example 179, (R)-4-(5-methyl-2H-tetrazol-2-yl)-N-(8-methylisoquinolin-1-yl)-N-(piperidin-3-yl)benzamide], the IC50 was 72.4 nM.

In the case of `Cc1cccc2ccnc(N(C(=O)c3ccc(-c4cnn(C)c4-c4ccccc4)cc3F)[C@@H]3CCCNC3)c12` [Example 126, (R)-2-fluoro-4-(1-methyl-5-phenyl-1H-pyrazol-4-yl)-N-(8-methylisoquinolin-1-yl)-N-(piperidin-3-yl) benzamide], the IC50 is 355 nM.

In the case of `Cc1cccc2ccnc(N(C(=O)N3CCCC(C4CCC4)CC3)[C@@H]3CCCNC3)c12` (stereo partly drawn) [Example 261, 4-cyclobutyl-N-(8-methylisoquinolin-1-yl)-N—((R)-piperidin-3-yl)azepane-1-carboxamide], the IC50 is 5500 nM.

For the compound `O=C(c1ccc(-n2nnc3cccnc32)cc1F)N(c1nccc2ccncc12)[C@@H]1CCCNC1` [Example 300, (R)-4-(3H-[1,2,3]triazolo[4,5-b]pyridin-3-yl)-2-fluoro-N-(2,7-naphthyridin-1-yl)-N-(piperidin-3-yl)benzamide], the IC50 is over 20000 nM.

`Cc1cccc2ccnc(N(C(=O)c3ccc(-n4nnc5cccnc54)cc3)[C@@H]3CC[C@@H](C)NC3)c12` [Example 226, 4-(3H-[1,2,3]triazolo[4,5-b]pyridin-3-yl)-N-(8-methylisoquinolin-1-yl)-N-((3R,6R)-6-methylpiperidin-3-yl)benzamide]: the IC50 was over 20000 nM.

`O=C(c1ccc(-n2nnc3cccnc32)cc1F)N(c1nccc2ccc(CO)cc12)[C@@H]1CCCNC1` [Example 154, (R)-4-(3H-[1,2,3]triazolo[4,5-b]pyridin-3-yl)-2-fluoro-N-(7-(hydroxymethyl)isoquinolin-1-yl)-N-(piperidin-3-yl)benzamide]: the IC50 is 1050 nM.

Consider `Cc1cccc2ccnc(N(C(=O)c3ccc(Nc4ncccn4)cn3)[C@@H]3CCCNC3)c12` [Example 184, (R)—N-(8-methylisoquinolin-1-yl)-N-(piperidin-3-yl)-5-(pyrimidin-2-ylamino) picolinamide], for which the IC50 was 1550 nM.

As to `Cc1cn(-c2ccc(C(=O)N(c3nccc4cccc(C)c34)[C@@H]3CCCNC3)c(F)c2)nn1` [Example 251, (R)-2-fluoro-4-(4-methyl-1H-1,2,3-triazol-1-yl)-N-(8-methylisoquinolin-1-yl)-N-(piperidin-3-yl)benzamide], the IC50 is 67.6 nM.

As to `O=C(c1ccc(-n2nnc3cccnc32)cc1F)N(c1nccc2cccc(C(F)(F)F)c12)[C@@H]1CCCNC1` [Example 221, (R)-4-(3H-[1,2,3]triazolo[4,5-b]pyridin-3-yl)-2-fluoro-N-(piperidin-3-yl)-N-(8-(trifluoromethyl)isoquinolin-1-yl)benzamide], the IC50 was 2000 nM.

Regarding `Cc1cccc2ccnc(N(C(=O)c3ccc(N4CCOCC4)cc3)[C@@H]3CCCNC3)c12` [Example 219, (R)—N-(8-methylisoquinolin-1-yl)-4-morpholino-N-(piperidin-3-yl)benzamide], the IC50 was 6310 nM.

For the compound `Cc1cccc2ccnc(N(C(=O)c3ccc(-n4nnc5ccc(C#N)nc54)cc3F)[C@@H]3CCCNC3)c12` [Example 191, (R)-4-(5-cyano-3H-[1,2,3]triazolo[4,5-b]pyridin-3-yl)-2-fluoro-N-(8-methylisoquinolin-1-yl)-N-(piperidin-3-yl)benzamide], the IC50 was 10.7 nM.

As to `O=C(c1ccc(-n2nnc3cccnc32)cc1F)N(c1nccc2scc(Br)c12)[C@@H]1CCCNC1` [Example 122, (R)-4-(3H-[1,2,3]triazolo[4,5-b]pyridin-3-yl)-N-(3-bromothieno[3,2-c]pyridin-4-yl)-2-fluoro-N-(piperidin-3-yl)benzamide], the IC50 was 123 nM.

Take `Cc1cccc2ccnc(N(C(=O)N3CCCCC3c3nc4ccccc4s3)[C@@H]3CCCNC3)c12` (stereo partly drawn) [Example 259, 2-(benzo[d]thiazol-2-yl)-N-(8-methylisoquinolin-1-yl)-N—((R)-piperidin-3-yl)piperidine-1-carboxamide]: the IC50 is 8320 nM.

With `Cc1cccc2ccnc(N(C(=O)c3ccc(-c4n[nH]c5c4CCCC5)cc3F)[C@@H]3CCCNC3)c12` [Example 123, (R)-2-fluoro-N-(8-methylisoquinolin-1-yl)-N-(piperidin-3-yl)-4-(4,5,6,7-tetrahydro-1H-indazol-3-yl) benzamide], the IC50 is 5010 nM.

Turning to `Cc1cccc2ccnc(N(C(=O)c3ccc(-n4nnc5cccnc54)cn3)[C@@H]3CCCNC3)c12` [Example 244, (R)-5-(3H-[1,2,3]triazolo[4,5-b]pyridin-3-yl)-N-(8-methylisoquinolin-1-yl)-N-(piperidin-3-yl)picolinamide], the IC50 is 107 nM.

With `O=C(c1ccc(-c2cccc3cnccc23)cc1F)N(c1cc2ccccc2cn1)[C@@H]1CCCNC1` [Example 291, (R)-2-fluoro-N-(isoquinolin-3-yl)-4-(isoquinolin-5-yl)-N-(piperidin-3-yl)benzamide], the IC50 is 1260 nM.

As to `CCOC(=O)c1cc(C2CCN(C(=O)N(c3nccc4cccc(C)c34)[C@@H]3CCCNC3)CC2)on1` [Example 279, ethyl (R)-5-(1-((8-methylisoquinolin-1-yl)(piperidin-3-yl)carbamoyl)piperidin-4-yl)isoxazole-3-carboxylate], the IC50 was 5130 nM.

As for `O=C(c1ccc(-n2nnc3cccnc32)cc1F)N(c1ncccc1-c1cn[nH]c1)[C@@H]1CCCNC1` [Example 176, (R)—N-(3-(1H-pyrazol-4-yl)pyridin-2-yl)-4-(3H-[1,2,3]triazolo[4,5-b]pyridin-3-yl)-2-fluoro-N-(piperidin-3-yl)benzamide], the IC50 is 933 nM.

Take `Cc1cccc2ccnc(N(C(=O)c3ccc(-c4cnn(C)c4)cc3)[C@@H]3CCCNC3)c12` [Example 239, (R)-4-(1-methyl-1H-pyrazol-4-yl)-N-(8-methylisoquinolin-1-yl)-N-(piperidin-3-yl)benzamide]: the IC50 is 437 nM.

As for `Cc1cccc2ccnc(N(C(=O)N3CC=C(c4ccccc4OCc4ccccc4)CC3)[C@@H]3CCCNC3)c12` [Example 299, (R)-4-(2-(benzyloxy)phenyl)-N-(8-methylisoquinolin-1-yl)-N-(piperidin-3-yl)-3,6-dihydropyridine-1(2H)-carboxamide], the IC50 was 5500 nM.

For the compound `N#Cc1ccc2c(N(C(=O)c3ccc(-n4nnc5cccnc54)cc3F)[C@@H]3CCCNC3)nccc2c1` [Example 147, (R)-4-(3H-[1,2,3]triazolo[4,5-b]pyridin-3-yl)-2-fluoro-N-(6-cyanoisoquinolin-1-yl)-N-(piperidin-3-yl)benzamide], the IC50 is 1380 nM.

In the case of `COC(=O)c1cccnc1N(C(=O)c1ccc(-n2nnc3cccnc32)cc1F)[C@@H]1CCCNC1` [Example 167, methyl (R)-2-(4-(3H-[1,2,3]triazolo[4,5-b]pyridin-3-yl)-2-fluoro-N-(piperidin-3-yl)benzamido)nicotinate], the IC50 is 661 nM.

Take `Cc1cccc2ccnc(N(C(=O)c3ccc(-n4nccn4)cc3)[C@@H]3CCCNC3)c12` [Example 235, (R)—N-(8-methylisoquinolin-1-yl)-N-(piperidin-3-yl)-4-(2H-1,2,3-triazol-2-yl)benzamide]: the IC50 was 8510 nM.

With `O=C(c1ccc(-n2nnc3cccnc32)cc1F)N(c1nccc2ccc(/C=C/CO)cc12)[C@@H]1CCCNC1` [Example 135, (R)-4-(3H-[1,2,3]triazolo[4,5-b]pyridin-3-yl)-2-fluoro-N-(7-(3-hydroxyprop-1-en-1-yl)isoquinolin-1-yl)-N-(piperidin-3-yl)benzamide], the IC50 is 575 nM.

As for `Cc1cc(-c2ccc(C(=O)N(c3nccc4ccn(C)c34)[C@@H]3CCCNC3)c(F)c2)on1` [Example 212, (R)-2-fluoro-N-(1-methyl-1H-pyrrolo[2,3-c]pyridin-7-yl)-4-(3-methylisoxazol-5-yl)-N-(piperidin-3-yl)benzamide], the IC50 is 355 nM.
